According to patent US20260256756A1, “USE OF PIPERIDINE ALKENE COMPOUND IN PREPARATION OF DRUG FOR TREATING CANCER” (JIANGSU HANSOH PHARMACEUTICAL GROUP CO., LTD., priority 2023, published 2026):

How the values were obtained:
[1] = system: OVCAR-3 cells; test: In vitro proliferation inhibition (CellTiter-Glo), OVCAR-3; type: cell-based; conditions: Homo sapiens; OVCAR-3, ovarian cancer; 6-10 days culture
Description: […]
Experimental data processing method: The luminescence signal value was used to calculate the inhibition rate. […]

[2] = system: human breast cancer cell line MX-1 xenograft tumor; test: Subcutaneous xenograft tumor model of human breast cancer cell line MX-1; type: in vivo, BALB/c nude mice
Description: • 1. Experimental objective: To evaluate the in vivo efficacy of the compound in a subcutaneous xenograft tumor model of human breast cancer cell line MX-1 in nude mice. • 2. Reagent • RPMI-1640 medium (22400-089, Gibco), fetal bovine serum (FBS) (10099-141C, Gibco) • Phosphate buffer (PBS, 10010-023, Gibco), HPMC (D180HB4005, Shanghai Colorcon Coating Technology Ltd.) • 0.25% Trypsin-EDTA (25200-056, Gibco), Pen Strep (P/S) (15140-122, Gibco) • 3. Experimental operations and data processing • 3.1 Animals: BALB/c nude mice, 8-12 weeks old, female, purchased from the Laboratory Animal Business Department of Shanghai Institute of Planned Parenthood Research. • 3.2 Cell culture and cell suspension preparation • a. A vial of MX-1 cells was taken from a cell bank, the cells were thawed with RPMI-1640 medium (RPMI-1640+10% FBS), and the thawed cells were placed in a cell culture flask (with the cell type, date, the name of the culture operator, etc., being marked on the wall of the flask), which were placed in a CO2 incubator for culturing (wherein the temperature of the incubator was 37° C., and the CO2 concentration was 5%). • b. The cells were passaged every three days, and after passage, the cells were placed in the CO2 incubator to continue the culture. This process was repeated until the cell number met the requirements for in vivo efficacy. • c. The cultured cells were collected, counted using a full-automatic cell counter, and resuspended with PBS on the basis of the counting results to prepare a cell suspension (at a density of 3×10^7/mL), which was then placed in an ice box for later use. • 3.3 Cell inoculation • a. Before inoculation, the nude mice were marked with disposable universal ear tags for mice and rats. • b. At the time of inoculation, the cell suspension was mixed uniformly, 0.1-1 mL of the cell suspension was aspirated using a 1 mL syringe with air bubbles expelled, and the syringe was then placed on an ice bag for later use. • c. The nude mouse was secured with the left hand, the right dorsal area near the right shoulder (inoculation site) of the nude mouse was disinfected with a 75% alcohol cotton ball, and inoculation was initiated after 30 seconds. • d. The experimental nude mice were inoculated sequentially (0.1 mL of cell suspension per mouse). • 3.4 Tumor measurement, grouping and administration in tumor-bearing mice • a. Tumor was measured on days 10-18 after inoculation depending on the tumor growth, and the tumor size was calculated.
tumor volume (mm^3)=length (mm)×width (mm)×width (mm)/2 Tumor volume calculation: • b. According to the body weight of tumor-bearing mice and the size of the tumor, the mice were grouped by random grouping. • c. According to the grouping results, the test drug was started to be administered (administration method: oral administration; administration volume: 10 mL/kg; administration frequency: once/day; administration cycle: 21 days; vehicle: 0.5% HPMC). • d. Tumor measurement and weighing were performed twice a week after starting administration of test drugs. • e. The animals were euthanized at the end of the experiment. • f. Data processing was performed using software such as GraphPad Prism. The tumor inhibitory efficacy of the compound was evaluated by TGI (%) and ΔT/ΔC (%). ΔT/ΔC (%)=(T−T0)/(C−C0)×100, where T and C are the tumor volumes of the treatment group and the vehicle control group at the end of the experiment, respectively, and T0 and C0 are the tumor volumes of the treatment group and the vehicle control group at the beginning of the experiment, respectively. Tumor growth inhibition (TGI) (%)=100−ΔT/ΔC (%). Tumor growth inhibition (TGI) (%)=100−(T−T0)/T0×100 when tumor regression occurs • 4. Experimental conclusion

[3] = MX-1, 100 mg/kg oral once/day, Day 21
[4] = MX-1, 3 mg/kg oral once/day, Day 21

`O=C(c1cc(Cc2n[nH]c(=O)c3ccccc23)ccc1F)N1CCN(C(=O)C2CC2)CC1` [Olaparib] was tested, and the IC50 [1] was 0.319 ± 0.047 µM, the “Tumor volume (Mean ± SEM)” value ([2]; MX-1, 100 mg/kg oral once/day, Day 0) was 122 ± 14 mm^3 and the T/C [2, 3] was 88.08%. For the same compound, the TGI [2, 3] was 12.73% and the “Tumor volume (Mean ± SEM)” value [2, 3] was 1656 ± 289 mm^3.
`CCc1cc2ncc(CN3CCN(c4ccc(C(=O)NC)nc4)CC3)cc2[nH]c1=O` [AZD5305] was tested, and the IC50 [1] was 0.0051 ± 0.0014 µM, the “Tumor volume (Mean ± SEM)” value ([2]; MX-1, 3 mg/kg oral once/day, Day 0) was 122 ± 17 mm^3 and the T/C [2, 4] was 34.13%. The TGI [2, 4] was 70.43% and the “Tumor volume (Mean ± SEM)” value [2, 4] was 642 ± 132 mm^3.
